Test results from patent US11806313B2, “Abiraterone acetate containing composition and application thereof” (Hunan Huize Biopharma S & T Co., Ltd, priority 2021, dated 2023).

Legend:
[1] = type: physicochemical
Description: Therefore, the self-microemulsion system of the present invention can choose the mixture of glycerol monolinoleate (CC) and medium chain triglyceride (MCT) as the oil phase. […] Accordingly, when glycerol monolinoleate and medium chain triglyceride are used in combination as the oil phase, in order to ensure a larger drug loading capacity, the amount of CC in the oil phase should be as much as possible, while the amount of MCT should be as little as possible.
When PEG-40 hydrogenated castor oil (RH40) and 2-(2-ethoxyethoxy)ethanol (HP) are used in combination as the emulsion phase, in order to ensure the emulsification effect of the self-microemulsion system and to ensure a large drug loading capacity, one should increase the amount of RH40 in the emulsion phase while also reduce the amount of HP as much as possible.

[2] = cited from earlier work
[3] = cited from earlier work; remark: listed apart in the source
[4] = high-fat diet (57% fat, 825 calories)
[5] = low-fat diet (7% fat, 300 calories)

## CC(=O)O[C@H]1CC[C@@]2(C)C(=CC[C@@H]3[C@@H]2CC[C@]2(C)C(c4cccnc4)=CC[C@@H]32)C1 [abiraterone acetate, (3β)-17-(3-pyridyl)androsta-5,16-dien-3-yl acetate]
[1]
  solubility in 2-(2-ethoxyethoxy)ethanol (HP): about 69.0 mg/g
  solubility in PEG-40 hydrogenated castor oil (RH40): about 24.7 mg/g
  solubility in glycerol monolinoleate (CC): about 62.9 mg/g
  solubility in medium chain triglyceride (MCT): about 28.4 mg/g
[2]
  solubility in water: less than 0.01 mg/ml
[3]; [4]
  increase of AUC0-∞ with food: ~10 times
  increase of Cmax with food: about 17 times
[3]; [5]
  increase of AUC0-∞ of abiraterone with food: ~5 times
  increase of Cmax of abiraterone with food: about 7 times
